Data taken from US4582847A, “4-chloro-2-phenylimidazole-5-acetic acid derivatives and use as diuretics and hypotensives” (Takeda Chemical Industries, Ltd., priority 1983, dated 1986).

Legend:
[1] = test system: Angiotensin II (rabbit aortic vessel); assay: Angiotensin II-antagonizing activity (rabbit aortic vessel); conditions: AII 4×10^-9 M, 15 min treatment
Protocol: Angiotensin II (briefly, AII)-antagonizing activity of the compound (I) of this invention (rabbit aortic vessel)
The method of preparing the aortic vessel specimens and the reaction conditions employed were as described in European Journal of Pharmacology 18, 316 (1972). AII was used in a concentration of 4×10^-9 M, and the change in isometric tension of the untreated vessel specimen was measured as control. As a test, the vessel was treated with the test compound for 15 minutes and a similar determination was made. The two results were compared and the inhibition rate was calculated by means of the following formula.
Inhibition rate (%) [formula]

[2] = test system: rats; assay: Diuretic action in rats (method of W. L. Lipschitz); format: in vivo; conditions: rat, 30 mg/kg P.O., n = 6; control group = 1.00
Protocol: (§1) The test was conducted in rats and dogs, in accordance with the method of W. L. Lipschitz. The numerals in the table denote the values for the treated groups with the value for control group being taken as 1.00. [formula]

[3] = test system: dogs; assay: Diuretic action in dogs (method of W. L. Lipschitz); format: in vivo; conditions: dog, n = 3, control group = 1.00
Protocol: as §1

[4] = test system: dogs with renal hypertension; assay: Antihypertensive action in dogs with renal hypertension; format: in vivo, beagle dog; conditions: dose 10 mg, oral; for Diastolic blood pressure after 1 hr. / Systolic blood pressure after 1 hr.: 1 hr after administration; for Diastolic blood pressure after 2 hrs. / Systolic blood pressure after 2 hrs.: 2 hrs after administration; for Diastolic blood pressure after 4 hrs. / Systolic blood pressure after 4 hrs.: 4 hrs after administration; for Diastolic blood pressure after 8 hrs. / Systolic blood pressure after 8 hrs.: 8 hrs after administration; for Diastolic blood pressure before administration / Systolic blood pressure before administration: before administration (baseline)
Excerpt: Antihypertensive action in dogs with renal hypertension
Male adult beagle dogs were laparotomized under pentobarbital anesthesia and the left renal artery was constricted with a silver clip so as to reduce the renal blood flow to about 30%. After the operation, the animals were kept for at least 2 months and the individuals having a systolic pressure of at least about 180 mmHg were used in the test. […] Blood pressure determinations were made using a plethysmograph (Narco, DE-300). Each drug was sealed in a gelatin capsule and administered by the oral route. The blood pressure was monitored up to 8 hours after administration.

Compound | Inhibition rate (%) ([1]; concentration of drug 10^-5 M) | Diuretic action UK V [2] | Diuretic action UNa V [2] | Diuretic action UV [2] | Diuretic action UK V ([3]; 3 mg/kg P.O.) | Diuretic action UNa V ([3]; 3 mg/kg P.O.) | Diuretic action UV ([3]; 3 mg/kg P.O.) | Diuretic action UK V ([3]; 30 mg/kg P.O.) | Diuretic action UNa V ([3]; 30 mg/kg P.O.) | Diuretic action UV ([3]; 30 mg/kg P.O.) | Diastolic blood pressure after 1 hr. [4] [mmHg] | Systolic blood pressure after 1 hr. [4] [mmHg] | Diastolic blood pressure after 2 hrs. [4] [mmHg] | Systolic blood pressure after 2 hrs. [4] [mmHg] | Diastolic blood pressure after 4 hrs. [4] [mmHg] | Systolic blood pressure after 4 hrs. [4] [mmHg] | Diastolic blood pressure after 8 hrs. [4] [mmHg] | Systolic blood pressure after 8 hrs. [4] [mmHg] | Diastolic blood pressure before administration [4] [mmHg] | Systolic blood pressure before administration [4] [mmHg] | further results
O=C(O)Cc1c(Cl)nc(-c2ccccc2)n1Cc1ccc(O)cc1 [4-Chloro-1-(4-hydroxybenzyl)-2-phenylimidazole-5-acetic acid, reference compound] | 46 | – | – | – | – | – | – | – | – | – | – | – | – | – | – | – | – | – | – | – | –
COc1ccc(Cn2c(-c3ccccc3)nc(Cl)c2CC(=O)O)cc1C [4-Chloro-1-(4-methoxy-3-methylbenzyl)-2-phenylimidazole-5-acetic acid, reference compound] | – | 3.33 | 6.36 | 8.25 | 0.86 | 1.10 | 1.20 | 2.53 | 1.73 | 1.67 | 113 ± 6 | 185 ± 5 | 116 ± 7 | 181 ± 6 | 115 ± 4 | 181 ± 2 | 115 ± 5 | 188 ± 5 | 123 ± 6 | 189 ± 2 | –
Cc1cc(Cn2c(-c3ccccc3)nc(Cl)c2CC(=O)O)ccc1O [Example 1, 4-chloro-1-(4-hydroxy-3-methylbenzyl)-2-phenylimidazole-5-acetic acid] | 100 | – | – | – | 2.20 | 2.97 | 3.41 | 4.88 | 4.24 | 5.11 | 123 ± 4 | 189 ± 5 | 93 ± 7 | 165 ± 6 | 89 ± 7 | 155 ± 8 | 110 ± 8 | 167 ± 8 | 124 ± 2 | 201 ± 5 | Inhibition rate (%) ([1]; concentration of drug 10^-6 M): 75%
CC(=O)Oc1ccc(Cn2c(-c3ccccc3)nc(Cl)c2CC(=O)O)cc1C [Ref. Example 3, 4-chloro-1-(4-acetoxy-3-methylbenzyl)-2-phenylimidazole-5-acetic acid] | – | 2.92 | 6.54 | 8.22 | – | – | – | – | – | – | – | – | – | – | – | – | – | – | – | – | –
CCCC(=O)Oc1ccc(Cn2c(-c3ccccc3)nc(Cl)c2CC(=O)O)cc1C [Ref. Example 4, 4-chloro-1-(4-n-butyryloxy-3-methylbenzyl)-2-phenylimidazole-5-acetic acid] | – | 2.80 | 5.82 | 6.69 | – | – | – | – | – | – | – | – | – | – | – | – | – | – | – | – | –
